Results on 19 compounds are retold here after patent US9896441B2 (Lycera Corporation, priority 2014, dated 2018).

Where only a bound is given, the exact number is not on record here.

One experiment deals with T1, Gal4-RORγ-LBD (Homo sapiens, UniProt P51449).
T1 construct: expressed in transfected cells
T1 sequence (P51449 269-508 limits assumed): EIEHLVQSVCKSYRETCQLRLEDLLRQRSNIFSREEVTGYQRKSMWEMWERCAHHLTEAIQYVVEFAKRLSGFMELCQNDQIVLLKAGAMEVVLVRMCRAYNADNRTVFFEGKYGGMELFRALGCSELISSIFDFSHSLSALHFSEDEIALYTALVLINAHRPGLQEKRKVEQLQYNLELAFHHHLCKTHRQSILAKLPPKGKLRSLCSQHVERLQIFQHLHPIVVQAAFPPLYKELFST
The experiment is described as follows: Gal4-RORγ Luciferase Reporter Assay in HEK-293T Cells. The class given is cell-based. To be noted: HEK-293 cells; for Gal4-RORγ Assay Max Response: maximum response. The method, boiled down: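 HEK-293 cells were co-transfected with Gal4-RORγ-LBD and a Gal4-luciferase reporter, then exposed overnight at 37 °C to compounds with […] ursolic acid present (0.2% DMSO). Luminescence was read with One-Glo after 10 min at RT, untreated signal was set as 100, and Max Response was taken as the upper plateau of a 4-parameter logistic fit.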

The target in another experiment is T2, RORγ-LBD (Homo sapiens, UniProt P51449).
T2 construct: made in house; host or cells: SF9 cells (baculovirus); used as diluted lysate
T2 sequence (P51449 269-508 limits assumed): T1 sequence (P51449 269-508 limits assumed)
The experiment is described as follows: RORγ-Ligand Binding Domain (LBD) TR-FRET Assay.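 As to TR-FRET Assay Max Response: 665/615 nm signal ratio set to 100 without ursolic acid or test compound.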 The class given is biochemical. The settings on record: for TR-FRET Assay Max Response: maximum response. The essentials: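 SF9 lysate containing His-RORγ-LBD, ~3 nM final; coactivator peptide biotin-SRC1 LXXLL, 200 nM final; ursolic acid 2 μM final; DMSO 1% final; Tris pH 7.0 buffer with KCl, EDTA, DTT, BSA. TR-FRET format.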
In general terms: Time-resolved FRET reads energy transfer from a long-lived donor to a nearby acceptor.

The mark [1] stands for this setting: ursolic acid present, luciferase readout.
[2] abbreviates: with 2 μM ursolic acid (RORγ antagonist), highest test concentration 10 μM.
Setting [3] is: luciferase reporter, with ursolic acid.
Where [4] appears, read: luciferase reporter, in presence of ursolic acid.

The term EC50 denotes the concentration at which the effect is half-maximal.

For the compound `O=C(O)CC[C@H]1CN(S(=O)(=O)c2cccc(C(F)(F)F)c2)c2cc(CCc3c(F)cccc3Cl)ccc2O1`, the EC50 on Gal4-RORγ-LBD (setting [1]) is 500 to 5000 nM; on RORγ-LBD (setting [2]) it was below 500 nM.
Consider `COC(=O)CC[C@H]1CN(S(=O)(=O)c2cn(C(F)F)nc2C)c2cc(/C=C(\C)c3c(F)cccc3Cl)ccc2O1` [Example 86X, (S)-methyl 3-(6-(2-(2-chloro-6-fluorophenyl)prop-1-en-1-yl)-4-((1-(difluoromethyl)-3-methyl-1H-pyrazol-4-yl)sulfonyl)-3,4-dihydro-2H-benzo[b][1,4]oxazin-2-yl)propanoate], for which the EC50 is 500 to 5000 nM at Gal4-RORγ-LBD (setting [3]) and below 500 nM at RORγ-LBD (RORγ-LBD TR-FRET).
For `CCOc1nn(CC)cc1S(=O)(=O)N1C[C@H](CCC(=O)OC)Oc2ccc(/C=C/c3cccc(Cl)n3)cc21` [Example 89AB, (S,E)-methyl 3-(6-(2-(6-chloropyridin-2-yl)vinyl)-4-((3ethoxy-1-ethyl-1H-pyrazol-4-yl)sulfonyl)-3,4-dihydro-2H-benzo[b][1,4]oxazin-2-yl)propanoate] the same measures were above 10000 nM and 500 to 5000 nM.
As for `C/C(=C\c1ccc2c(c1)N(S(=O)(=O)c1cccc(C(F)(F)F)c1)C[C@H](CCC(=O)N1CCC[C@H]1C(=O)O)O2)c1c(F)cccc1Cl` [Example 129J, (3-((S)-6-((E)-2-(2-chloro-6-fluorophenyl)prop-1-en-1-yl)-4-((3-(trifluoromethyl)phenyl)sulfonyl)-3,4-dihydro-2H-benzo[b][1,4]oxazin-2-yl)propanoyl)-L-proline], on Gal4-RORγ-LBD (setting [4]), the EC50 was in the range of 500 to 5000 nM and the “Gal4-RORγ Assay Max Response” value is reported as “*** (a value in the range of greater than 150 to 200)”. Moreover, on RORγ-LBD (RORγ-LBD TR-FRET assay), the half-maximal effective concentration (EC50) is below 500 nM and the “TR-FRET Assay Max Response” value is reported as “**** (a value greater than 200)”.
As to `O=C(O)CC[C@H]1CN(S(=O)(=O)c2cccc(OC(F)F)c2)c2cc(/C=C/c3ncccc3Cl)ccc2O1` [Example 89DT, (S,E)-3-(6-(2-(3-chloropyridin-2-yl)vinyl)-4-((3-(difluoromethoxy)phenyl)sulfonyl)-3,4-dihydro-2H-benzo[b][1,4]-oxazin-2-yl)propanoic acid], the EC50 on Gal4-RORγ-LBD (setting [3]) was 500 to 5000 nM; on RORγ-LBD (RORγ-LBD TR-FRET), below 500 nM.
The corresponding values for `O=C(O)CC[C@H]1CN(S(=O)(=O)c2cccc(OC(F)F)c2)c2cc(/C=C/c3ncccn3)ccc2O1` [Example 89G, (S,E)-3-(4-((3-(difluoromethoxy)-phenyl)sulfonyl)-6-(2-(pyrimidin-2-yl)vinyl)-3,4-dihydro-2H-benzo[b][1,4]oxazin-2-yl)propanoic acid] are above 10000 nM and 500 to 5000 nM.
Consider `CCOC(=O)C(=O)NCC[C@H]1CN(S(=O)(=O)c2ccc(F)c(OC)c2)c2cc(/C=C(\C)c3c(F)cccc3Cl)ccc2O1` [Example 116C, ethyl (S,E)-2-((2-(6-(2-(2-chloro-6-fluorophenyl)prop-1-en-1-yl)-4-((4-fluoro-3-methoxyphenyl)sulfonyl)-3,4-dihydro-2H-benzo[b][1,4]oxazin-2-yl)ethyl)amino)-2-oxoacetate], for which, at Gal4-RORγ-LBD (setting [4]), the EC50 was 500 to 5000 nM and the “Gal4-RORγ Assay Max Response” value is reported as “** (a value in the range of greater than 90 to 150)”. At RORγ-LBD (RORγ-LBD TR-FRET assay), the 50% effective concentration (EC50) was below 500 nM and the “TR-FRET Assay Max Response” value is listed as “*** (a value in the range of greater than 150 to 200)”.
As for `C/C(=C\c1cc2c(cc1F)O[C@@H](CCC(=O)O)CN2S(=O)(=O)c1cccc(OC(F)F)c1)c1c(F)cccc1Cl` [Example 44, (S,E)-3-(6-(2-(2-Chloro-6-fluorophenyl)prop-1-en-1-yl)-4-((3-(difluoromethoxy)phenyl)sulfonyl)-7-fluoro-3,4-dihydro-2H-benzo[b][1,4]oxazin-2-yl)propanoic acid], the results for the EC50 at Gal4-RORγ-LBD (setting [3]) and at RORγ-LBD (RORγ-LBD TR-FRET) were 500 to 5000 nM and below 500 nM, respectively.
For the compound `COC(=O)CC[C@H]1CN(S(=O)(=O)c2cccc(C(F)(F)F)c2)c2cc(/C(C)=C/c3c(F)cccc3Cl)ccc2O1` [Example 31, (S,E)-Methyl 3-(6-(1-(2-chloro-6-fluorophenyl)prop-1-en-2-yl)-4-((3-(trifluoromethyl)phenyl)sulfonyl)-3,4-dihydro-2H-benzo[b][1,4]oxazin-2-yl)propanoate], the EC50 is 500 to 5000 nM on Gal4-RORγ-LBD (setting [3]) and below 500 nM on RORγ-LBD (RORγ-LBD TR-FRET).
Consider `CCOC(=O)C1CCN(CCC[C@H]2CN(S(=O)(=O)c3cccc(C(F)(F)F)c3)c3cc(/C=C(\C)c4c(F)cccc4Cl)ccc3O2)CC1` [Example 119E, ethyl (S,E)-1-(3-(6-(2-(2-chloro-6-fluorophenyl)prop-1-en-1-yl)-4-((3-(trifluoromethyl)phenyl)sulfonyl)-3,4-dihydro-2H-benzo[b][1,4]oxazin-2-yl)propyl)piperidine-4-carboxylate], for which, at Gal4-RORγ-LBD (setting [4]), the EC50 is 500 to 5000 nM and the “Gal4-RORγ Assay Max Response” value was “** (a value in the range of greater than 90 to 150)”. On RORγ-LBD (RORγ-LBD TR-FRET assay), the EC50 is below 500 nM and the “TR-FRET Assay Max Response” value is given as “*** (a value in the range of greater than 150 to 200)”.
For `CC/C(=C\c1ccc2c(c1)N(S(=O)(=O)c1cccc(C(F)(F)F)c1)C[C@H](CCC(=O)OC)O2)C(C)C` [Example 191H, methyl (S,E)-3-(6-(2-ethyl-3-methylbut-1-en-1-yl)-4-((3-(trifluoromethyl)phenyl)sulfonyl)-3,4-dihydro-2H-benzo[b][1,4]-oxazin-2-yl)propanoate], the EC50 on Gal4-RORγ-LBD (setting [1]) and on RORγ-LBD (setting [2]) was below 500 nM each time.
On to `COC(=O)CC[C@H]1CN(S(=O)(=O)c2cccc(C(F)(F)F)c2)c2cc(C=C3CCCCC3)ccc2O1` [Example 90, Methyl (S)-3-(6-(cyclohexylidenemethyl)-4-((3-(trifluoromethyl)phenyl)sulfonyl)-3,4-dihydro-2H-benzo[b][1,4]oxazin-2-yl)propanoate], for which the results for the EC50 on Gal4-RORγ-LBD (setting [3]) and on RORγ-LBD (RORγ-LBD TR-FRET) were 500 to 5000 nM and below 500 nM, respectively.
On to `C/C(=C\c1ccc2c(c1)N(S(=O)(=O)c1cccc(C(F)(F)F)c1)CCS2)c1c(F)cccc1Cl` [Example 187, (E)-6-(2-(2-Chloro-6-fluorophenyl)prop-1-en-1-yl)-4-((3-(trifluoromethyl)phenyl)sulfonyl)-3,4-dihydro-2H-benzo[b][1,4]thiazine], for which, on Gal4-RORγ-LBD (setting [4]), the EC50 is below 500 nM and the “Gal4-RORγ Assay Max Response” value is “** (a value in the range of greater than 90 to 150)”. Also, on RORγ-LBD (RORγ-LBD TR-FRET assay), the EC50 was below 500 nM and the “TR-FRET Assay Max Response” value was “**** (a value greater than 200)”.
On to `COC(=O)CCC1CC(S(=O)(=O)c2ccc(F)c(OC)c2)c2cc(/C=C(\C)c3c(F)cccc3Cl)ccc2O1` (centres unmarked) [Example 186F, methyl (E)-3-(6-(2-(2-chloro-6-fluorophenyl)prop-1-en-1-yl)-4-((4-fluoro-3-methoxyphenyl)sulfonyl)chroman-2-yl)propanoate], for which, on Gal4-RORγ-LBD (setting [4]), the EC50 is below 500 nM and the “Gal4-RORγ Assay Max Response” value is given as “* (a value in the range of 30 to 90)”. Moreover, at RORγ-LBD (RORγ-LBD TR-FRET assay), the EC50 was below 500 nM and the “TR-FRET Assay Max Response” value is recorded as “*** (a value in the range of greater than 150 to 200)”.
In the case of `C/C(=C\c1cc2c(cc1C)O[C@@H](CCC(=O)O)CN2S(=O)(=O)c1cccc(C(F)(F)F)c1)c1c(F)cccc1Cl` [Example 56, (S,E)-3-(6-(2-(2-Chloro-6-fluorophenyl)prop-1-en-1-yl)-7-methyl-4-((3-(trifluoromethyl)phenyl)sulfonyl)-3,4-dihydro-2H-benzo[b][1,4]oxazin-2-yl)propanoic acid], the values for the EC50 on Gal4-RORγ-LBD (setting [3]) and on RORγ-LBD (RORγ-LBD TR-FRET) were above 10000 nM and below 500 nM, respectively.
As for `CCOc1nn(CC)cc1S(=O)(=O)N1C[C@H](CCC(=O)O)Oc2ccc(/C=C/c3ccccc3Cl)cc21` [Example 89BC, (S,E)-3-(6-(2-chlorostyryl)-4-((3-ethoxy-1-ethyl-1H-pyrazol-4-yl)sulfonyl)-3,4-dihydro-2H-benzo[b][1,4]oxazin-2-yl)propanoic acid], the EC50 was 500 to 5000 nM on Gal4-RORγ-LBD (setting [3]) and below 500 nM at RORγ-LBD (RORγ-LBD TR-FRET).
Consider `O=C(O)CC[C@H]1CN(S(=O)(=O)c2cc(C3CC3)cnc2OCCO)c2cc(/C=C/c3c(F)cccc3Cl)ccc2O1` [Example 89FO, (S,E)-3-(6-(2-chloro-6-fluorostyryl)-4-((5-cyclopropyl-2-(2-hydroxyethoxy)pyridin-3-yl)sulfonyl)-3,4-dihydro-2H-benzo[b][1,4]oxazin-2-yl)propanoic acid], for which the EC50 at Gal4-RORγ-LBD (setting [1]) and on RORγ-LBD (setting [2]) was below 500 nM each time.
As to `O=C(O)CC[C@H]1CN(S(=O)(=O)c2cccc(C(F)F)c2)c2cc(/C=C/c3c(Cl)cccc3C(F)F)ccc2O1` [Example 89EP, (S,E)-3-(6-(2-chloro-6-(difluoromethyl)styryl)-4-((3-(difluoromethyl)phenyl)-sulfonyl)-3,4-dihydro-2H-benzo[b][1,4]oxazin-2-yl)propanoic acid], the EC50 at Gal4-RORγ-LBD (setting [3]) and at RORγ-LBD (RORγ-LBD TR-FRET) was below 500 nM throughout.
As for `C/C(=C\c1ccc2c(c1)C(S(=O)(=O)c1cccc(C(F)(F)F)c1)CC(CN)O2)c1c(F)cccc1Cl` (centres unmarked) [Example 180, (E)-(6-(2-(2-Chloro-6-fluorophenyl)prop-1-en-1-yl)-4-((3-(trifluoromethyl)phenyl)sulfonyl)chroman-2-yl)methanamine], at Gal4-RORγ-LBD (setting [4]), the EC50 lay within 500 to 5000 nM and the “Gal4-RORγ Assay Max Response” value is reported as “* (a value in the range of 30 to 90)”. On RORγ-LBD (RORγ-LBD TR-FRET assay), the EC50 is below 500 nM and the “TR-FRET Assay Max Response” value is reported as “*** (a value in the range of greater than 150 to 200)”.
